The text below walks through data of patent publication US20250388574A1, “HETEROCYCLIC COMPOUNDS AS TRIGGERING RECEPTOR EXPRESSED ON MYELOID CELLS 2 AGONISTS AND METHODS OF USE” (AMGEN INC., priority 2020, published 2025).

The test deals with hTREM2 (Homo sapiens, UniProt Q9NZC2). In words: Phospho-Syk AlphaScreen/AlphaLISA assay in TREM2 and DAP12 overexpressing HEK293 cells (Example A1). It counts as cell-based. On the set-up: expressed in transfected cells. The note with it: HEK293 cells; for EC50: read-out: hTREM2 EC50. Summed up:
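Agonism read as Syk phosphorylation: compounds in 1% DMSO applied 45 min at room temperature to TREM2/DAP12-HEK293 cells after 20 h culture. Lysis buffer with phosphatase inhibitors and anti-phospho-Syk plus biotinylated anti-Syk antibodies, then AlphaLISA beads (680 nm excitation); percent of control computed from antibody/isotype wells, curves fitted sigmoidally.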

hTREM2, sequence (Q9NZC2 19-230): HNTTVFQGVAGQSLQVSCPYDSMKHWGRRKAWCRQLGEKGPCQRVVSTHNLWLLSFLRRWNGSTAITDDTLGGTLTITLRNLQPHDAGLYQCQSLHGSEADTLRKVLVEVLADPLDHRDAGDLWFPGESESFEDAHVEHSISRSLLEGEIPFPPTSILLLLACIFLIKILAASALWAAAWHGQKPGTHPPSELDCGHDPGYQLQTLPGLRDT
hTREM2, sequence (O43914 22-113 partner): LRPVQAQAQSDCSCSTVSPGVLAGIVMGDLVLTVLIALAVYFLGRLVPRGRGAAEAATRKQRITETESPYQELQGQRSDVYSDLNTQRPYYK

The term EC50 denotes the concentration that produces a half-maximal response. Consider `Cc1nc2cc(N3CCOC(c4ccnn4C)C3)nc(-c3ccc(Cl)cc3F)c2c(=O)n1C` (stereo not shown) [Example 52, 5-(4-chloro-2-fluorophenyl)-2,3-dimethyl-7-(2-(1-methyl-1H-pyrazol-5-yl)-4-morpholinyl)pyrido[4,3-d]pyrimidin-4(3H)-one], for which the Emax entry was “++++ (Emax>300)” and the EC50 lay within 500 to 3000 nM.
In the case of `Cc1nc2cc(N3CCOC(CC(F)(F)F)C3)nc(-c3ccc(Cl)cc3F)c2c(=O)n1C` (stereo not shown) [Example 53, 5-(4-chloro-2-fluorophenyl)-2,3-dimethyl-7-(2-(2,2,2-trifluoroethyl)-4-morpholinyl)pyrido[4,3-d]pyrimidin-4(3H)-one], the Emax result was “++++ (Emax>300)” and the EC50 is 500 to 3000 nM.
For `Cc1ccc(C2CN(c3cc4nc(C)n(C)c(=O)c4c(-c4ccc(Cl)cc4F)n3)CCO2)cn1` (stereo not shown) [Example 60, 5-(4-chloro-2-fluorophenyl)-2,3-dimethyl-7-(2-(6-methyl-3-pyridinyl)-4-morpholinyl)pyrido[4,3-d]pyrimidin-4(3H)-one] the same measures were “++++ (Emax>300)” and 50 to 500 nM.
In the case of `Cc1cc([C@H]2CN(c3cc4nc(C)n(C)c(=O)c4c(-c4ccc(Cl)cc4F)n3)CCO2)ccn1` [Example 61, 5-(4-chloro-2-fluorophenyl)-2,3-dimethyl-7-((2S)-2-(2-methyl-4-pyridinyl)-4-morpholinyl)pyrido[4,3-d]pyrimidin-4(3H)-one], the Emax entry is “+++ (Emax>200 and ≤300)”; the EC50 is less than 50 nM.
In the case of `Cc1cc([C@@H]2CN(c3cc4nc(C)n(C)c(=O)c4c(-c4ccc(Cl)cc4F)n3)CCO2)ccn1` [Example 62, 5-(4-chloro-2-fluorophenyl)-2,3-dimethyl-7-((2R)-2-(2-methyl-4-pyridinyl)-4-morpholinyl)pyrido[4,3-d]pyrimidin-4(3H)-one], the Emax entry was “+++ (Emax>200 and ≤300)”; the EC50 lay within 50 to 500 nM.
`Cc1nccc(C2CN(c3cc4nc(C)n(C)c(=O)c4c(-c4ccc(Cl)cc4F)n3)CCO2)n1` (stereo not shown) [Example 63, 5-(4-chloro-2-fluorophenyl)-2,3-dimethyl-7-(2-(2-methyl-4-pyrimidinyl)-4-morpholinyl)pyrido[4,3-d]pyrimidin-4(3H)-one]: the Emax result is “++++ (Emax>300)” and the EC50 is 500 to 3000 nM.
Turning to `Cc1nn(C)cc1C1CN(c2cc3nc(C)n(C)c(=O)c3c(-c3ccc(Cl)cc3F)n2)CCO1` (stereo not shown) [Example 68, 5-(4-chloro-2-fluorophenyl)-7-(2-(1,3-dimethyl-1H-pyrazol-4-yl)-4-morpholinyl)-2,3-dimethylpyrido[4,3-d]pyrimidin-4(3H)-one], the Emax result was “+++ (Emax>200 and ≤300)”; the EC50 is 50 to 500 nM.
Regarding `Cc1nc2cc(N3CCOC(c4cncc(F)c4)C3)nc(-c3ccc(Cl)cc3F)c2c(=O)n1C` (stereo not shown) [Example 69, 5-(4-chloro-2-fluorophenyl)-7-(2-(5-fluoro-3-pyridinyl)-4-morpholinyl)-2,3-dimethylpyrido[4,3-d]pyrimidin-4(3H)-one], the Emax entry is recorded as “++++ (Emax>300)” and the EC50 was 50 to 500 nM.
For the compound `CCc1nnc(C2CN(c3cc4nc(C)n(C)c(=O)c4c(-c4ccc(Cl)cc4F)n3)CCO2)o1` (stereo not shown) [Example 70, 5-(4-chloro-2-fluorophenyl)-7-(2-(5-ethyl-1,3,4-oxadiazol-2-yl)-4-morpholinyl)-2,3-dimethylpyrido[4,3-d]pyrimidin-4(3H)-one], the Emax entry is given as “++++ (Emax>300)” and the EC50 is 50 to 500 nM.
Regarding `Cc1csc(C2CN(c3cc4nc(C)n(C)c(=O)c4c(-c4ccc(Cl)cc4F)n3)CCO2)n1` (stereo not shown) [Example 75, 5-(4-chloro-2-fluorophenyl)-2,3-dimethyl-7-(2-(4-methyl-1,3-thiazol-2-yl)-4-morpholinyl)pyrido[4,3-d]pyrimidin-4(3H)-one], the Emax result is “++++ (Emax>300)” and the EC50 was in the range of 50 to 500 nM.
As to `Cc1nc2cc(N3CCOC(c4ccc(C#N)cc4)C3)nc(-c3ccc(Cl)cc3F)c2c(=O)n1C` (stereo not shown) [Example 90, 4-(4-(5-(4-chloro-2-fluorophenyl)-2,3-dimethyl-4-oxo-3,4-dihydropyrido [4,3-d]pyrimidin-7-yl)-2-morpholinyl)benzonitrile], the Emax entry is “++++ (Emax>300)” and the EC50 was 50 to 500 nM.
`Cc1nc2cc(N3CCOC(c4noc(-c5ccccc5)n4)C3)nc(-c3ccc(Cl)cc3F)c2c(=O)n1C` (stereo not shown) [Example 93, 5-(4-chloro-2-fluorophenyl)-2,3-dimethyl-7-(2-(5-phenyl-1,2,4-oxadiazol-3-yl)-4-morpholinyl)pyrido[4,3-d]pyrimidin-4(3H)-one]: the Emax result was “+++ (Emax>200 and ≤300)”; the EC50 was in the range of 500 to 3000 nM.
With `Cc1nc2cc(N3CCOC(c4ccnc(C(F)(F)F)c4)C3)nc(-c3ccc(Cl)cc3F)c2c(=O)n1C` (stereo not shown) [Example 94, 5-(4-chloro-2-fluorophenyl)-2,3-dimethyl-7-(2-(2-(trifluoromethyl)-4-pyridinyl)-4-morpholinyl)pyrido[4,3-d]pyrimidin-4(3H)-one], the Emax entry was “+++ (Emax>200 and ≤300)”; the EC50 is less than 50 nM.
Take `Cc1nc2cc(N3CCc4cnccc4C3)nc(-c3ccc(Cl)cc3F)c2c(=O)n1C` [Example 101, 5-(4-chloro-2-fluorophenyl)-7-(3,4-dihydro-2,6-naphthyridin-2(1H)-yl)-2,3-dimethylpyrido[4,3-d]pyrimidin-4(3H)-one]: the Emax result is “+++ (Emax>200 and ≤300)”; the EC50 is 500 to 3000 nM.
With `Cc1nc2cc(N3CCc4ccncc4C3)nc(-c3ccc(Cl)cc3F)c2c(=O)n1C` [Example 102, 5-(4-chloro-2-fluorophenyl)-7-(3,4-dihydro-2,7-naphthyridin-2(1H)-yl)-2,3-dimethylpyrido[4,3-d]pyrimidin-4(3H)-one], the Emax entry is “+++ (Emax>200 and ≤300)”; the EC50 was 50 to 500 nM.
For `Cc1nc2cc(N3CCCC(C)(c4ccccc4)C3)nc(-c3ccc(Cl)cc3F)c2c(=O)n1C` (stereo not shown) [Example 103, 5-(4-chloro-2-fluorophenyl)-2,3-dimethyl-7-(3-methyl-3-phenyl-1-piperidinyl)pyrido[4,3-d]pyrimidin-4(3H)-one], the Emax result is “+ (Emax>45 and ≤100)”; the EC50 lay in the range of 3000 to 100000 nM.
As for `Cc1nc2cc(N3CCc4cnn(C)c4C3)nc(-c3ccc(Cl)cc3F)c2c(=O)n1C` [Example 104, 5-(4-chloro-2-fluorophenyl)-2,3-dimethyl-7-(1-methyl-1,4,5,7-tetrahydro-6H-pyrazolo[3,4-c]pyridin-6-yl)pyrido[4,3-d]pyrimidin-4(3H)-one], the Emax entry is “++++ (Emax>300)” and the EC50 is 50 to 500 nM.
For `Cc1nc2cc(N3CCCC(c4cnco4)C3)nc(-c3ccc(Cl)cc3F)c2c(=O)n1C` (stereo not shown) [Example 105, 5-(4-chloro-2-fluorophenyl)-2,3-dimethyl-7-(3-(1,3-oxazol-5-yl)-1-piperidinyl)pyrido[4,3-d]pyrimidin-4(3H)-one] the same measures were “++++ (Emax>300)” and 50 to 500 nM.
On to `Cc1nc2cc(N3CCCC(C4CNC(=O)C4)C3)nc(-c3ccc(Cl)cc3F)c2c(=O)n1C` (stereo not shown) [Example 106, 5-(4-chloro-2-fluorophenyl)-2,3-dimethyl-7-(3-(5-oxo-3-pyrrolidinyl)-1-piperidinyl)-pyrido[4,3-d]pyrimidin-4(3H)-one], for which the Emax entry is “+++ (Emax>200 and ≤300)”; the EC50 fell in the range of 50 to 500 nM.
For `Cc1nc2cc(N3CCCC(N(C)C)C3)nc(-c3ccc(Cl)cc3F)c2c(=O)n1C` (stereo not shown) [Example 109, 5-(4-chloro-2-fluoro-phenyl)-7-(3-(dimethylamino)-1-piperidinyl)-2,3-dimethylpyrido[4,3-d]pyrimidin-4(3H)-one], the Emax entry is on record as “++++ (Emax>300)” and the EC50 was 500 to 3000 nM.
On to `Cc1nc2cc(N3CCCC(N4CCC4)C3)nc(-c3ccc(Cl)cc3F)c2c(=O)n1C` (stereo not shown) [Example 110, 7-(3-(1-azetidinyl)-1-piperidinyl)-5-(4-chloro-2-fluorophenyl)-2,3-dimethylpyrido[4,3-d]pyrimidin-4(3H)-one], for which the Emax result was “++++ (Emax>300)” and the EC50 is 500 to 3000 nM.
For `Cc1nc2cc(N3CCc4ccnc(Cl)c4C3)nc(-c3ccc(Cl)cc3F)c2c(=O)n1C` [Example 115, 7-(8-chloro-3,4-dihydro-2,7-naphthyridin-2(1H)-yl)-5-(4-chloro-2-fluorophenyl)-2,3-dimethylpyrido[4,3-d]pyrimidin-4(3H)-one], the Emax result is “+++ (Emax>200 and ≤300)”; the EC50 was 50 to 500 nM.
With `COc1ncnc2c1CN(c1cc3nc(C)n(C)c(=O)c3c(-c3ccc(Cl)cc3F)n1)CC2` [Example 116, 5′-(4-chloro-2-fluorophenyl)-4-methoxy-2′,3′-dimethyl-7,8-dihydro-5H-[6,7′-bipyrido[4,3-d]pyrimidin]-4′(3′H)-one], the Emax result was “++ (Emax>100 and ≤200)”; the EC50 fell in the range of 50 to 500 nM.
Take `Cc1nc2cc(N3CCC(C(F)(F)F)C3)nc(-c3ccc(Cl)cc3F)c2c(=O)n1C` (stereo not shown) [Example 119, 5-(4-chloro-2-fluorophenyl)-2,3-dimethyl-7-(3-(trifluoromethyl)-1-pyrrolidinyl)pyrido[4,3-d]pyrimidin-4(3H)-one]: the Emax result is “+++ (Emax>200 and ≤300)”; the EC50 was in the range of 50 to 500 nM.
Regarding `Cc1nc2cc(N3CCC(C(F)F)C3)nc(-c3ccc(Cl)cc3F)c2c(=O)n1C` (stereo not shown) [Example 120, 5-(4-chloro-2-fluorophenyl)-7-(3-(difluoromethyl)-1-pyrrolidin-yl)-2,3-dimethylpyrido[4,3-d]pyrimidin-4(3H)-one], the Emax result is “+++ (Emax>200 and ≤300)”; the EC50 fell in the range of 50 to 500 nM.
Consider `Cc1nc2cc(N3CCC(c4cccnc4)C3)nc(-c3ccc(Cl)cc3F)c2c(=O)n1C` (stereo not shown) [Example 121, 5-(4-chloro-2-fluorophenyl)-2,3-dimethyl-7-(3-(3-pyridinyl)-1-pyrrolidinyl)pyrido[4,3-d]pyrimidin-4(3H)-one], for which the Emax result is on record as “++++ (Emax>300)” and the EC50 fell in the range of 50 to 500 nM.
